Test results from PubChem BioAssay AID330 (DTP/NCI, 2004).
Values joined by “and” are separate entries in the source; they are usually repeats but may differ in a detail not shown here. Equal values may be shown once. Inconclusive results and toxic doses are left out.

Tested on: P388 leukemia ip, CD2F1 mice, survival T/C
Experiment: NCI In Vivo Anticancer Drug Screen. Data for tumor model P388 Leukemia (intraperitoneal) in CD2F1 (CDF1) mice
Conditions: endpoint: median survival time, higher = longer survival
Method in brief: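 Mice carrying the transplanted tumor received test compound or vehicle. Survival was recorded in each group, and the value is the treated-group measurement divided by that of the vehicle-treated control group.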

[1] = dose: 25.0 mg/kg/injection, schedule: Q01DX009 (ip), vehicle: Klucel (hydroxypropylcellulose) (HPC)
[2] = dose: 50.0 mg/kg/injection, schedule: Q01DX009 (ip), vehicle: saline with Tween-80
[3] = dose: 100.0 mg/kg/injection, schedule: Q01DX009 (ip), vehicle: saline with Tween-80
[4] = dose: 200.0 mg/kg/injection, schedule: Q01DX009 (ip), vehicle: saline with Tween-80
[5] = dose: 50.0 mg/kg/injection, schedule: Q01DX005 (ip), vehicle: Klucel (hydroxypropylcellulose) (HPC)
[6] = dose: 100.0 mg/kg/injection, schedule: Q01DX005 (ip), vehicle: Klucel (hydroxypropylcellulose) (HPC)
[7] = dose: 200.0 mg/kg/injection, schedule: Q01DX005 (ip), vehicle: Klucel (hydroxypropylcellulose) (HPC)
[8] = dose: 100.0 mg/kg/injection, schedule: Q01DX001 (ip), vehicle: saline with Tween-80

`COc1ccc([N+](=O)[O-])cc1C[S+](C)C` was tested, and the T/C (dose: 6.25 mg/kg/injection, schedule: Q01DX009 (ip), vehicle: Klucel (hydroxypropylcellulose) (HPC)) was 108 % of control, the T/C (dose: 12.5 mg/kg/injection, schedule: Q01DX009 (ip), vehicle: Klucel (hydroxypropylcellulose) (HPC)) was 107 % of control and the T/C [1] was 112 % of control.

For `O=C(O)CC1C(=O)OC2C3COC(=O)c4cc(O)c(O)c(O)c4-c4c(cc(O)c(O)c4O)C(=O)OC2C(OC(=O)c2cc(O)c(O)c4c2C1C(O)C(=O)O4)C(OC(=O)c1cc(O)c(O)c(O)c1)O3` (centres undefined), the T/C (dose: 0.78 mg/kg/injection, schedule: Q01DX009 (ip), vehicle: saline) was 99 % of control, the T/C (dose: 1.56 mg/kg/injection, schedule: Q01DX009 (ip), vehicle: saline) was 102 % of control and the T/C (dose: 3.12 mg/kg/injection, schedule: Q01DX009 (ip), vehicle: saline) was 98 % of control. For the same molecule, the T/C (dose: 6.25 mg/kg/injection, schedule: Q01DX009 (ip), vehicle: saline) was 100 % of control and 121 % of control, the T/C (dose: 12.5 mg/kg/injection, schedule: Q01DX009 (ip), vehicle: saline) was 111 % of control and 93 % of control and the T/C (dose: 25.0 mg/kg/injection, schedule: Q01DX009 (ip), vehicle: saline) was 107 % of control and 97 % of control. For the same molecule, the T/C (dose: 50.0 mg/kg/injection, schedule: Q01DX009 (ip), vehicle: saline) was 116 % of control and 97 % of control.

For `CS(C)=O`, the T/C (dose: 93.75 mg/kg/injection, schedule: Q01DX009 (ip), vehicle: saline) was 109 % of control, the T/C (dose: 187.5 mg/kg/injection, schedule: Q01DX009 (ip), vehicle: saline) was 107 % of control and the T/C (dose: 375.0 mg/kg/injection, schedule: Q01DX009 (ip), vehicle: saline) was 98 % of control. For the same molecule, the T/C (dose: 750.0 mg/kg/injection, schedule: Q01DX009 (ip), vehicle: saline) was 109 % of control, the T/C (dose: 1500.0 mg/kg/injection, schedule: Q01DX009 (ip), vehicle: saline) was 104 % of control and the T/C (dose: 1.5 grams/kg/injection, schedule: Q01DX001 (ip), vehicle: saline) was 99 % of control and 101 % of control. For the same molecule, the T/C (dose: 1.5 grams/kg/injection, schedule: Q01DX009 (ip), vehicle: saline) was 101 % of control and 109 % of control, the T/C (dose: 2.0 % in 0.5 ml injection vol, schedule: Q01DX009 (ip), vehicle: water) was 103 % of control and 95 % of control and the T/C (dose: 3000.0 mg/kg/injection, schedule: Q01DX001 (ip), vehicle: water) was 104 % of control. For the same molecule, the T/C (dose: 3000.0 mg/kg/injection, schedule: Q01DX009 (ip), vehicle: saline) was 95 % of control, the T/C (dose: 3.0 grams/kg/injection, schedule: Q01DX001 (ip), vehicle: saline) was 104 % of control and 106 % of control and the T/C (dose: 3.0 grams/kg/injection, schedule: Q01DX009 (ip), vehicle: saline) was 96 % of control. For the same molecule, the T/C (dose: 3.1 grams/kg/injection, schedule: Q01DX009 (ip), vehicle: water) was 101 % of control, the T/C (dose: 4.0 % in 0.5 ml injection vol, schedule: Q01DX009 (ip), vehicle: water) was 112 % of control and 94 % of control and the T/C (dose: 6000.0 mg/kg/injection, schedule: Q01DX001 (ip), vehicle: water) was 99 % of control. For the same molecule, the T/C (dose: 6.0 grams/kg/injection, schedule: Q01DX001 (ip), vehicle: saline) was 95 % of control and 98 % of control, the T/C (dose: 6.0 grams/kg/injection, schedule: Q01DX009 (ip), vehicle: saline) was 100 % of control and 106 % of control and the T/C (dose: 6.2 grams/kg/injection, schedule: Q01DX009 (ip), vehicle: water) was 97 % of control. The T/C (dose: 6.25 % in 0.5 ml injection vol, schedule: Q01DX009 (ip), vehicle: water) was 103 % of control, the T/C (dose: 8.0 % in 0.5 ml injection vol, schedule: Q01DX009 (ip), vehicle: water) was 103 % of control and 112 % of control and the T/C (dose: 12000.0 mg/kg/injection, schedule: Q01DX001 (ip), vehicle: water) was 101 % of control. The T/C (dose: 12.0 grams/kg/injection, schedule: Q01DX001 (ip), vehicle: saline) was 104 % of control and 96 % of control, the T/C (dose: 12.5 % in 0.5 ml injection vol, schedule: Q01DX009 (ip), vehicle: water) was 110 % of control and the T/C (dose: 12.5 grams/kg/injection, schedule: Q01DX009 (ip), vehicle: water) was 108 % of control. For the same molecule, the T/C (dose: 16.0 % in 0.5 ml injection vol, schedule: Q01DX009 (ip), vehicle: water) was 102 % of control and 105 % of control and 112 % of control, the T/C (dose: 24.0 grams/kg/injection, schedule: Q01DX001 (ip), vehicle: saline) was 37 % of control and 39 % of control and the T/C (dose: 25.0 % in 0.5 ml injection vol, schedule: Q01DX009 (ip), vehicle: water) was 117 % of control. The T/C (dose: 32.0 % in 0.5 ml injection vol, schedule: Q01DX009 (ip), vehicle: water) was 111 % of control and 121 % of control.

In the case of `c1ccc2c(c1)nc1n2CC2(CO1)COc1nc3ccccc3n1C2`, the T/C [2] is reported as 99 % of control, the T/C [3] is reported as 99 % of control and the T/C [4] is reported as 104 % of control.

In the case of `CCCN(CCC)C(=O)C(c1ccccc1)C(O)(c1ccccc1)c1ccccc1` (centres undefined), the T/C [5] is reported as 100 % of control, the T/C [6] is reported as 95 % of control and the T/C [7] is reported as 92 % of control.

For `CCOC(=O)OCC1=Nc2cccc3cccc(c23)N1`, the T/C [5] was 100 % of control, the T/C [6] was 110 % of control and the T/C [7] was 108 % of control.

With `Cc1ccc(NC(=O)/C(Cl)=C(\Cl)C(=O)O)cc1C` the T/C (dose: 3.75 mg/kg/injection, schedule: Q01DX005 (ip), vehicle: saline with Tween-80) was 96 % of control, the T/C (dose: 7.5 mg/kg/injection, schedule: Q01DX005 (ip), vehicle: saline with Tween-80) was 102 % of control and the T/C (dose: 15.0 mg/kg/injection, schedule: Q01DX005 (ip), vehicle: saline with Tween-80) was 103 % of control and 110 % of control. The T/C (dose: 60.0 mg/kg/injection, schedule: Q01DX005 (ip), vehicle: saline with Tween-80) was 104 % of control.

For `CCN(CC)CCNc1ccc(COC(=O)NC)c2sc3ccccc3c(=O)c12`, the T/C (dose: 1.56 mg/kg/injection, schedule: Q01DX009 (ip), vehicle: saline with Tween-80) was 116 % of control, the T/C (dose: 3.12 mg/kg/injection, schedule: Q01DX009 (ip), vehicle: saline with Tween-80) was 122 % of control and the T/C (dose: 6.25 mg/kg/injection, schedule: Q01DX009 (ip), vehicle: saline with Tween-80) was 119 % of control.

With `Nc1nsc(Cl)n1` the T/C (dose: 25.0 mg/kg/injection, schedule: Q01DX001 (ip), vehicle: saline with Tween-80) was 97 % of control, the T/C (dose: 50.0 mg/kg/injection, schedule: Q01DX001 (ip), vehicle: saline with Tween-80) was 106 % of control and the T/C [8] was 99 % of control.

In the case of `C=CCN(CC=C)P(=O)(N1CC1)N1CC1C` (centres undefined), the T/C (dose: 0.6 mg/kg/injection, schedule: Q01DX009 (ip), vehicle: saline) is reported as 189 % of control and the T/C (dose: 0.9 mg/kg/injection, schedule: Q01DX009 (ip), vehicle: saline) is reported as 174 % of control.

In the case of `CC1OC(c2c(Cl)cccc2[N+](=O)[O-])OC1C` (centres undefined), the T/C (dose: 60.0 mg/kg/injection, schedule: Q01DX005 (ip), vehicle: Klucel (hydroxypropylcellulose) (HPC)) is reported as 99 % of control, the T/C (dose: 120.0 mg/kg/injection, schedule: Q01DX005 (ip), vehicle: Klucel (hydroxypropylcellulose) (HPC)) is reported as 91 % of control and the T/C (dose: 240.0 mg/kg/injection, schedule: Q01DX005 (ip), vehicle: Klucel (hydroxypropylcellulose) (HPC)) is reported as 92 % of control.

With `CC/C(=C(\CC)c1ccc(OC)cc1)c1ccc(OC)cc1` the T/C [1] was 107 % of control, the T/C (dose: 50.0 mg/kg/injection, schedule: Q01DX009 (ip), vehicle: Klucel (hydroxypropylcellulose) (HPC)) was 105 % of control and the T/C [2] was 102 % of control. For the same molecule, the T/C (dose: 100.0 mg/kg/injection, schedule: Q01DX009 (ip), vehicle: Klucel (hydroxypropylcellulose) (HPC)) was 106 % of control, the T/C [3] was 98 % of control and the T/C (dose: 200.0 mg/kg/injection, schedule: Q01DX009 (ip), vehicle: Klucel (hydroxypropylcellulose) (HPC)) was 97 % of control.

`CO/N=C/c1ccccc1C(=O)O` was tested, and the T/C [5] was 100 % of control, the T/C [6] was 95 % of control and the T/C [7] was 99 % of control.

`O=C1CCC(=O)N1CC(O)COc1ccccc1` (centres undefined) was tested, and the T/C [3] was 95 % of control, the T/C [4] was 95 % of control and the T/C (dose: 400.0 mg/kg/injection, schedule: Q01DX009 (ip), vehicle: saline with Tween-80) was 100 % of control.

In the case of `CCCCC1(C)OC(C)CC(C)O1` (centres undefined), the T/C (dose: 60.0 mg/kg/injection, schedule: Q01DX005 (ip), vehicle: saline) is reported as 97 % of control, the T/C (dose: 120.0 mg/kg/injection, schedule: Q01DX005 (ip), vehicle: saline) is reported as 99 % of control and the T/C (dose: 240.0 mg/kg/injection, schedule: Q01DX005 (ip), vehicle: saline) is reported as 108 % of control.

With `CCn1c(COc2c(I)cc(I)c3cccnc23)n[nH]c1=S` the T/C (dose: 6.25 mg/kg/injection, schedule: Q01DX005 (ip), vehicle: Klucel (hydroxypropylcellulose) (HPC)) was 96 % of control, the T/C (dose: 12.5 mg/kg/injection, schedule: Q01DX005 (ip), vehicle: Klucel (hydroxypropylcellulose) (HPC)) was 98 % of control and the T/C (dose: 25.0 mg/kg/injection, schedule: Q01DX005 (ip), vehicle: Klucel (hydroxypropylcellulose) (HPC)) was 102 % of control. For the same molecule, the T/C [5] was 98 % of control.

In the case of `NC(=S)N/N=C1/C(=O)N(c2ccccc2)C(=O)C1C(=O)Nc1ccccc1` (centres undefined), the T/C [8] is reported as 100 % of control, the T/C (dose: 200.0 mg/kg/injection, schedule: Q01DX001 (ip), vehicle: saline with Tween-80) is reported as 106 % of control and the T/C (dose: 400.0 mg/kg/injection, schedule: Q01DX001 (ip), vehicle: saline with Tween-80) is reported as 98 % of control.
